From patent US6872689B1, “Water-dispersible agrochemical compositions” (Agform, Ltd., priority 1999, dated 2005)

Assay type: physicochemical
Protocol: 200 mls water was poured into a jacketed glass vessel and allowed to reach 25 C. A Grant recirculator was used to maintain the temperature at 25 C+/−1 C. A magnetic stirrer at a set speed was used to stir the water. The specified weight of granules was then added to the water and allowed to disperse for 30 seconds before a timer was started. A 2 mls sample was removed using a syringe after 5 minutes and filtered using a 0.45 micron syringe filter. The solution was then analysed to determine the active concentration using a HPLC method.

COc1nc(C)nc(NC(=O)NS(=O)(=O)c2ccccc2Cl)n1 [Airmilled technical, Chlorsulfuron]
solubility in distilled water (in words): not readily soluble
% active added to water that dissolved after 5 minutes (chlorsulfuron, dilution rate 91 mgs a.i./L, distilled water, 25 C): <2%
